Where two headings read alike, the source gives them in different places.
Experiments:
[1] = test system: Yarrowia lipolytica cells; test: Relative copy number analysis (qPCR) of CAN1 fragment for off-target insertion of editing template by NHEJ; type: cell-based; conditions: for Fraction of cells with single copy of CAN1 / Fraction of cells with ≥2 copies of CAN1: HDR-positive colonies
Procedure: An additional complication of repair of Cas9/gRNA generated double-stranded breaks using editing template is the possibility that the editing template can be incorporated by the NHEJ pathway at other regions of DNA damage. In order to determine the frequency at which this occurs in the cells treated with editing templates under the three different Scr-7 treatments, relative copy number analysis was performed looking for a 62 bp fragment of the CAN1 locus present in both the chromosome and the editing template (SEQ ID NO: 42). Relative copy number analysis was performed on colonies from cells treated with pRF303 (SEQ ID NO: 24) and linear editing template (SEQ ID NO: 34) under all three treatment conditions. If the editing template is only incorporated during the HDR of the Cas9/gRNA double strand break at the CAN1 locus (SEQ ID NO: 35) the cell will only carry a single copy of the copy number analysis fragment (SEQ ID NO: 42). However, if the cell incorporates additional copies of the editing template elsewhere in the genome due to the activity of the NHEJ pathway additional copies of the fragment will be present and the cell will return a higher relative copy number. Briefly, genomic DNA was isolated using standard techniques from colonies that scored positive for HDR of the Can1-1 Cas9/gRNA targeted double strand break. Genomic DNA was normalized to 5 ng/μl. 1 μl of the normalized genomic DNA from each colony was added to three replicate qPCR reactions for both the CAN1 locus (SEQ ID NO: 42), (primers used, AGCGCCAAACCCAAAGC, forward (SEQ ID NO: 43), […], reverse (SEQ ID NO: 44), and 6FAM-[…]-TAMRA, probe (SEQ ID NO: 45)) or as a control the TEF1 locus (SEQ ID NO: 56) (primers used, […], forward (SEQ ID NO: 47), […], reverse (SEQ ID NO: 48) and 6FAM-[…]-TAMRA, probe (SEQ ID NO: 49)). Reactions were run in TaqMAN universal PCR master mix (ABI life technologies) on a life technologies Quant Studio 7 instrument using the following cycling conditions 95° C. for 10 minutes followed by 40 cycles of 95° C. for 15 seconds, 60° C. for 1 minute. 6FAM fluorescence from the probes was monitored through the 40 cycles of the PCR and Ct values were collected. Relative gene copy number was determined by the ΔΔCt method (User Bulletin #2 ABI PRISM 7700 Sequence Detection System (Updated 2001)). Briefly, TEF1 Ct values were used to normalize the data for differences in cell copy number between genomic DNA samples. Genomic DNA from a wildtype strain was used as a reference for the relative quantification for the CAN1 copy number fragment (SEQ ID NO: 42). Software on the Quant studio 7 calculated relative gene copy number and corresponding error for each sample relative to the wildtype strain. The colonies were separated into two bins, those with a single relative copy of the CAN1 analysis fragment (SEQ ID NO: 42) and those with 2 or more relative copies (SEQ ID NO: 42). […] The second bin represents cells where the editing template was used to repair the Cas9/gRNA generated double-strand break at the Can1-1 target site (SEQ ID NO: 22) and was integrated at least once somewhere else in the genome via a NHEJ mechanism.

[2] = test system: Yarrowia lipolytica cells
From the text: In this example Yarrowia lipolytica cells treated with the DNA Ligase IV inhibitor, Scr7, were transformed with targeting plasmids in the presence and absence of editing templates. Homology directed repair (HDR) occurs between an editing template and the target DNA when there are two regions of homology flanking a region of interest (FIG. 3). A DNA double-stranded break at a target site within the region of interest can initiate HDR replacing the region of interest (FIG. 3, white box) with a modified region of interest carried on the editing template. In this example the modified region of interest lacks the entire open-reading frame of the CAN1 gene.
Cells were phenotypically scored for Canavanine resistance to determine overall targeting efficiency (NHEJ+HDR). Colony PCR of the CAN1 locus (SEQ ID NO: 35) was performed to differentiate repair of the Cas9/gRNA generated double-strand break by HDR or NHEJ.
Three different treatment conditions were tested: Untreated, Scr7-A, and Scr7-B (A schematic of the three treatments is shown in FIG. 4). For all three conditions a uracil auxotrophic strain of Yarrowia lipolytica ATCC20362 was used For the untreated condition the strain was grown for 24 hours on YPD medium plates (Teknova) at 30° C. (also referred to as a pretreatment). 1 loop of cells were resuspended in transformation buffer (35% polyethylene glycol average molecular weight of 3550, 100 mM lithium acetate, 100 mM dithiothreitol, 10 mM Tris, 1 mM EDTA pH 6.0). 100 μl of cell suspension was mixed with 100 ng of either pRF291 (SEQ ID NO: 18) (Cas9 expression, no gRNA) or pRF303 (SEQ ID NO: 24) (Cas9 expression, Can1-1 gRNA expression) with either no editing template or 1 μg linear editing template (SEQ ID NO: 34). Transformation mixtures were incubated at 39° C. for 1 hour at 800 RPM. Transformation mixtures were plated on complete minimal medium plates lacking uracil (Teknova) to select for cells transformed with plasmid DNA. Plates were incubated at 30° C. for 48 hours.
For treatment Scr7-A the strain was grown for 24 hours on YPD medium plates (Teknova) at 30° C. (also referred to as a pretreatment). 1 loop of cells were resuspended in modified transformation buffer (35% polyethylene glycol average molecular weight of 3550, 100 mM lithium acetate, 100 mM dithiothreitol, 10 mM Tris, 1 mM EDTA pH 6.0, 5 μM Scr7). 100 μl of cell suspension was mixed with 100 ng of either pRF291 (SEQ ID NO:18) (Cas9 expression, no gRNA) or pRF303 (SEQ ID NO: 24) (Cas9 expression, Can1-1 gRNA expression) with either no editing template or 1 μg linear editing template (SEQ ID NO: 31). Transformation mixtures were incubated at 39° C. for 1 hour at 800 RPM. Transformation mixtures were plated on complete minimal medium plates lacking uracil (Teknova) to select for cells transformed with plasmid DNA. Plates were incubated at 30° C. for 48 hours.
For treatment Scr7-B the strain was grown for 24 hours on YPD medium plates containing 5 μM Scr7 at 30° C. (also referred to as a pretreatment). 1 loop of cells were resuspended in modified transformation buffer (35% polyethylene glycol average molecular weight of 3550, 100 mM lithium acetate, 100 mM dithiothreitol, 10 mM Tris, 1 mM EDTA pH 6.0, 5 μM Scr7). 100 μl of cell suspension was mixed with 100 ng of either pRF291 (SEQ ID NO:18) (Cas9 expression, no gRNA) or pRF303 (SEQ ID NO: 24) (Cas9 expression, Can1-1 gRNA expression) with either no editing template or 1 μg linear editing template (SEQ ID NO: 31). Transformation mixtures were incubated at 39° C. for 1 hour at 800 RPM. Transformation mixtures were plated on complete minimal medium containing 5 μM Scr-7 plates lacking uracil. Plates were incubated at 30° C. for 48 hours.
For each condition, 24 colonies from each transformation were streak purified on complete minimal plates lacking uracil (Teknova) for single colonies.

[3] = test system: Yarrowia lipolytica cells; test: Colony PCR of the CAN1 locus to determine frequency of HDR at Cas9/gRNA double-strand breaks; type: cell-based; conditions: for Fold HDR over untreated (±SEM) / HDR Frequency (±SEM): pRF303, Can1-1 target site, with editing template
Procedure: To determine the frequency of HDR at the targeted double-strand breaks generated by Cas9/gRNA at the Can1-1 target site Yarrowia colony PCR of the CAN1 locus (SEQ ID NO: 40) (primers used, […], forward (SEQ ID NO: 38) and […], reverse (SEQ ID NO: 39)) was performed using standard techniques. If the CAN1 locus was unmodified or contained a small indel generated by NHEJ the colony PCR result would give a band similar in size to the WT CAN1 locus at an apparent size of 2125 bp (SEQ ID NO: 40). If the Cas9/gRNA generated double-strand break had been repaired using the editing templates the PCR would generate a smaller CAN1 locus product 392 bp indicating the deletion of the entire open-reading frame (SEQ ID NO: 41). Colony PCR was performed on all canavanine resistant colonies from cells transformed with pRF303 in the presence of editing template and the fraction of cells where the Cas9/gRNA generated double-strand break was repaired via HDR with the editing template and various Scr-7 treatment schemes was determined (Table 1).

[4] = Scr7 treatment A, pRF303 and linear editing template
[5] = Scr7 treatment B, pRF303 and linear editing template

O=c1[nH]c(=S)[nH]c(N=Cc2ccccc2)c1N=Cc1ccccc1 [Scr7]
Fraction of cells with single copy of CAN1 [1, 4]: 0.38
Fraction of cells with ≥2 copies of CAN1 [1, 4]: 0.63
Fraction of cells with single copy of CAN1 [1, 5]: 1
Fraction of cells with ≥2 copies of CAN1 [1, 5]: 0
Colonies with a single copy of the CAN1 editing template ([1]; Scr-7 treatment A, pRF303 and linear editing template): approximately 40%
Colonies with only a single copy of the CAN1 locus ([1]; Scr-7 treatment B, pRF303 and editing template): 100%
Canavanine resistance frequency (±Std. Dev) ([2]; Scr7 treatment A (5 μM Scr7 in transformation buffer), pRF291 (Cas9, no gRNA), no editing template): 0 ± 0
Canavanine resistance frequency (±Std. Dev) ([2]; Scr7 treatment A, pRF291 (Cas9, no gRNA), with editing template): 0 ± 0
Canavanine resistance frequency (±Std. Dev) ([2]; Scr7 treatment A, pRF303 (Can1-1 gRNA), no editing template): 62.2 ± 6.7
Canavanine resistance frequency (±Std. Dev) ([2]; Scr7 treatment A, pRF303 (Can1-1 gRNA), with editing template): 64.2 ± 6.4
Canavanine resistance frequency (±Std. Dev) ([2]; Scr7 treatment B (5 μM Scr7 in 24 h pretreatment, transformation buffer and selection plates), pRF291 (Cas9, no gRNA), no editing template): 0 ± 0
Canavanine resistance frequency (±Std. Dev) ([2]; Scr7 treatment B, pRF291 (Cas9, no gRNA), with editing template): 0 ± 0
Canavanine resistance frequency (±Std. Dev) ([2]; Scr7 treatment B, pRF303 (Can1-1 gRNA), no editing template): 68.7 ± 6.3
Canavanine resistance frequency (±Std. Dev) ([2]; Scr7 treatment B, pRF303 (Can1-1 gRNA), with editing template): 64.6 ± 20.3
Canavanine resistant cells ([2]; pRF291 (Cas9, no functional gRNA), regardless of Scr-7 treatment scheme): did not give rise to Canavanine resistance cells
Fold HDR over untreated (±SEM) ([3]; Scr7 treatment A): 0.9 ± 0.1 fold
HDR Frequency (±SEM) ([3]; Scr7 treatment A): 9.7 ± 1.4
Fold HDR over untreated (±SEM) ([3]; Scr7 treatment B): 1.5 ± 0.3 fold
HDR Frequency (±SEM) ([3]; Scr7 treatment B): 16.7 ± 4.8
Fold HDR over untreated (±SEM) ([3]; Scr7 treatment B, listed as Scr-7): 1.5 fold
Fraction of breaks repaired via HDR, as % of the frequency of untreated or short Scr-7 treatment A ([3]; extended Scr-7 treatment B, linear editing template): 150%

Source: patent US20180362961A1, “METHODS AND COMPOSITIONS FOR ENHANCED NUCLEASE-MEDIATED GENOME MODIFICATION AND REDUCED OFF-TARGET SITE EFFECTS” (Danisco US Inc., priority 2015, published 2018)
